This note sets out measurements from BindingDB's records for doi:10.1016/s0960-894x(99)00336-4 (Merck Research Laboratories, 1999).

This assay can be described thus: Inhibitory activity against Calcineurin (CaN phosphatase).
As for `CC[C@@H]1/C=C(\C)C[C@H](C)C[C@H](OC)[C@H]2O[C@@](O)(C(=O)C(=O)N3CCCC[C@H]3C(=O)O[C@H](/C(C)=C/C3CC[C@@H](OC[C@H](O)c4cc5ccccc5s4)[C@H](OC)C3)[C@H](C)[C@H](O)CC1=O)[C@H](C)C[C@@H]2OC` (stereo partly specified) [12-{2-[4-(2-Benzo[b]thiophen-2-yl-2-hydroxy-ethoxy)-3-methoxy-cyclohexyl]-1-methyl-vinyl}-17-ethyl-1,14-dihydroxy-23,25-dimethoxy-13,19,21,27-tetramethyl-11,28-dioxa-4-aza-tricyclo[22.3.1.0*4,9*]octacos-18-ene-2,3,10,16-tetraone], the IC50 (in general, the concentration that inhibits the measured activity by half) turned out to be 4.2 nM. In the case of `CC[C@@H]1/C=C(\C)C[C@H](C)C[C@H](OC)[C@H]2O[C@@](O)(C(=O)C(=O)N3CCCC[C@H]3C(=O)O[C@H](/C(C)=C/C3CC[C@@H](OC[C@H](O)c4cc(C)cc(C)c4)[C@H](OC)C3)[C@H](C)[C@H](O)CC1=O)[C@H](C)C[C@@H]2OC` (stereo partly specified) [12-(2-{4-[2-(3,5-Dimethyl-phenyl)-2-hydroxy-ethoxy]-3-methoxy-cyclohexyl}-1-methyl-vinyl)-17-ethyl-1,14-dihydroxy-23,25-dimethoxy-13,19,21,27-tetramethyl-11,28-dioxa-4-aza-tricyclo[22.3.1.0*4,9*]octacos-18-ene-2,3,10,16-tetraone] it was 8.7 nM.

`CC[C@@H]1/C=C(\C)C[C@H](C)C[C@H](OC)[C@H]2O[C@@](O)(C(=O)C(=O)N3CCCC[C@H]3C(=O)O[C@H](/C(C)=C/C3CC[C@@H](OC[C@@H](O)c4ccc(F)c(F)c4)[C@H](OC)C3)[C@H](C)[C@H](O)CC1=O)[C@H](C)C[C@@H]2OC` (stereo partly specified) [12-(2-{4-[2-(3,4-Difluoro-phenyl)-2-hydroxy-ethoxy]-3-methoxy-cyclohexyl}-1-methyl-vinyl)-17-ethyl-1,14-dihydroxy-23,25-dimethoxy-13,19,21,27-tetramethyl-11,28-dioxa-4-aza-tricyclo[22.3.1.0*4,9*]octacos-18-ene-2,3,10,16-tetraone]: the IC50 is 7.3 nM. In the case of `CC[C@@H]1/C=C(\C)C[C@H](C)C[C@H](OC)[C@H]2O[C@@](O)(C(=O)C(=O)N3CCCC[C@H]3C(=O)O[C@H](/C(C)=C/C3CC[C@@H](OC[C@H](O)c4cccc(C(F)(F)F)c4)[C@H](OC)C3)[C@H](C)[C@H](O)CC1=O)[C@H](C)C[C@@H]2OC` (stereo partly specified) [17-Ethyl-1,14-dihydroxy-12-(2-{4-[2-hydroxy-2-(3-trifluoromethyl-phenyl)-ethoxy]-3-methoxy-cyclohexyl}-1-methyl-vinyl)-23,25-dimethoxy-13,19,21,27-tetramethyl-11,28-dioxa-4-aza-tricyclo[22.3.1.0*4,9*]octacos-18-ene-2,3,10,16-tetraone] it was 5.9 nM. In the case of `CC[C@@H]1/C=C(\C)C[C@H](C)C[C@H](OC)[C@H]2O[C@@](O)(C(=O)C(=O)N3CCCC[C@H]3C(=O)O[C@H](/C(C)=C/C3CC[C@@H](OC[C@@H](O)c4cc5ccccc5s4)[C@H](OC)C3)[C@H](C)[C@H](O)CC1=O)[C@H](C)C[C@@H]2OC` (stereo partly specified) [12-{2-[4-(2-Benzo[b]thiophen-2-yl-2-hydroxy-ethoxy)-3-methoxy-cyclohexyl]-1-methyl-vinyl}-17-ethyl-1,14-dihydroxy-23,25-dimethoxy-13,19,21,27-tetramethyl-11,28-dioxa-4-aza-tricyclo[22.3.1.0*4,9*]octacos-18-ene-2,3,10,16-tetraone] it was 4 nM.

Regarding `CC[C@@H]1/C=C(\C)C[C@H](C)C[C@H](OC)[C@H]2O[C@@](O)(C(=O)C(=O)N3CCCC[C@H]3C(=O)O[C@H](/C(C)=C/C3CC[C@@H](OC[C@@H](O)c4cccc(C(F)(F)F)c4)[C@H](OC)C3)[C@H](C)[C@H](O)CC1=O)[C@H](C)C[C@@H]2OC` (stereo partly specified) [17-Ethyl-1,14-dihydroxy-12-(2-{4-[2-hydroxy-2-(3-trifluoromethyl-phenyl)-ethoxy]-3-methoxy-cyclohexyl}-1-methyl-vinyl)-23,25-dimethoxy-13,19,21,27-tetramethyl-11,28-dioxa-4-aza-tricyclo[22.3.1.0*4,9*]octacos-18-ene-2,3,10,16-tetraone], the IC50 came to 4.9 nM. With `CC[C@@H]1/C=C(\C)C[C@H](C)C[C@H](OC)[C@H]2O[C@@](O)(C(=O)C(=O)N3CCCC[C@H]3C(=O)O[C@H](/C(C)=C/C3CC[C@@H](OC[C@H](O)c4ccc5ccccc5c4)[C@H](OC)C3)[C@H](C)[C@H](O)CC1=O)[C@H](C)C[C@@H]2OC` (stereo partly specified) [17-Ethyl-1,14-dihydroxy-12-{2-[4-(2-hydroxy-2-naphthalen-2-yl-ethoxy)-3-methoxy-cyclohexyl]-1-methyl-vinyl}-23,25-dimethoxy-13,19,21,27-tetramethyl-11,28-dioxa-4-aza-tricyclo[22.3.1.0*4,9*]octacos-18-ene-2,3,10,16-tetraone], the IC50 turned out to be 7.3 nM. In the case of `C=CC[C@@H]1/C=C(\C)C[C@H](C)C[C@H](OC)[C@H]2O[C@@](O)(C(=O)C(=O)N3CCCC[C@H]3C(=O)O[C@H](/C(C)=C/[C@@H]3CC[C@@H](O)[C@H](OC)C3)[C@H](C)[C@@H](O)CC1=O)[C@H](C)C[C@@H]2OC` [(E)-(1R,9S,12S,13R,14R,21S,23S,24R,25S,27R)-17-Allyl-1,14-dihydroxy-12-[(E)-2-((3R,4R)-4-hydroxy-3-methoxy-cyclohexyl)-1-methyl-vinyl]-23,25-dimethoxy-13,19,21,27-tetramethyl-11,28-dioxa-4-aza-tricyclo[22.3.1.0*4,9*]octacos-18-ene-2,3,10,16-tetraone] it was 15 nM. Next, `CC[C@@H]1/C=C(\C)C[C@H](C)C[C@H](OC)[C@H]2O[C@@](O)(C(=O)C(=O)N3CCCC[C@H]3C(=O)O[C@H](/C(C)=C/C3CC[C@@H](OC[C@H](O)c4ccc(F)c(F)c4)[C@H](OC)C3)[C@H](C)[C@H](O)CC1=O)[C@H](C)C[C@@H]2OC` (stereo partly specified) [12-(2-{4-[2-(3,4-Difluoro-phenyl)-2-hydroxy-ethoxy]-3-methoxy-cyclohexyl}-1-methyl-vinyl)-17-ethyl-1,14-dihydroxy-23,25-dimethoxy-13,19,21,27-tetramethyl-11,28-dioxa-4-aza-tricyclo[22.3.1.0*4,9*]octacos-18-ene-2,3,10,16-tetraone]: 8.7 nM; `CC[C@@H]1/C=C(\C)C[C@H](C)C[C@H](OC)[C@H]2O[C@@](O)(C(=O)C(=O)N3CCCC[C@H]3C(=O)O[C@H](/C(C)=C/C3CC[C@@H](OC[C@@H](O)c4cc(C)cc(C)c4)[C@H](OC)C3)[C@H](C)[C@H](O)CC1=O)[C@H](C)C[C@@H]2OC` (stereo partly specified) [12-(2-{4-[2-(3,5-Dimethyl-phenyl)-2-hydroxy-ethoxy]-3-methoxy-cyclohexyl}-1-methyl-vinyl)-17-ethyl-1,14-dihydroxy-23,25-dimethoxy-13,19,21,27-tetramethyl-11,28-dioxa-4-aza-tricyclo[22.3.1.0*4,9*]octacos-18-ene-2,3,10,16-tetraone]: 7.9 nM. In the case of `CC[C@@H]1/C=C(\C)C[C@H](C)C[C@H](OC)[C@H]2O[C@@](O)(C(=O)C(=O)N3CCCC[C@H]3C(=O)O[C@H](/C(C)=C/C3CC[C@@H](OC[C@@H](O)c4ccc5ccccc5c4)[C@H](OC)C3)[C@H](C)[C@H](O)CC1=O)[C@H](C)C[C@@H]2OC` (stereo partly specified) [17-Ethyl-1,14-dihydroxy-12-{2-[4-(2-hydroxy-2-naphthalen-2-yl-ethoxy)-3-methoxy-cyclohexyl]-1-methyl-vinyl}-23,25-dimethoxy-13,19,21,27-tetramethyl-11,28-dioxa-4-aza-tricyclo[22.3.1.0*4,9*]octacos-18-ene-2,3,10,16-tetraone] it was 2.8 nM.
